Laboratory results reported in PubChem BioAssay AID1963968 (Molecular Pharmacology Branch, DTP, NCI, 2024).
“And” between values parts separate entries of the source, which are not always exact repeats. Identical values can stand only once.

Tested on: 945468-187-T-J3-PDC spheroids with HUVEC/MSC, viability
Test: Anticancer human tumor 945468-187-T-J3-PDC patient-derived rectal carcinoma cell line growth inhibition [PI3K]
Conditions: for viability, T/C: stronger effect = lower value
Outline: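 Spheroid viability read-out. Co-cultures contained the tumor line plus HUVEC and human MSCs. Each agent was paired with a PI3K inhibitor (inavolisib, alpelisib, duvelisib, copanlisib) across half-log dilutions starting at clinical Cmax, or at 10 microM when Cmax was unknown.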

[1] = curve of first compound, second compound 0.00316 µM
[2] = curve of first compound, second compound 0.01 µM
[3] = curve of first compound, second compound 0.0316 µM
[4] = curve of first compound, second compound 0.1 µM
[5] = curve of first compound, second compound 0.316 µM
[6] = curve of first compound, second compound 1 µM
[7] = second compound 0.00316 µM, first compound 0.0316 µM
[8] = second compound 0.00316 µM, first compound 0.1 µM
[9] = second compound 0.00316 µM, first compound 0.316 µM
[10] = second compound 0.00316 µM, first compound 1 µM
[11] = second compound 0.00316 µM, first compound 3.16 µM
[12] = second compound 0.00316 µM, first compound 10 µM
[13] = second compound 0.01 µM, first compound 0.0316 µM
[14] = second compound 0.01 µM, first compound 0.1 µM
[15] = second compound 0.01 µM, first compound 0.316 µM
[16] = second compound 0.01 µM, first compound 1 µM
[17] = second compound 0.01 µM, first compound 3.16 µM
[18] = second compound 0.01 µM, first compound 10 µM
[19] = second compound 0.0316 µM, first compound 0.0316 µM
[20] = second compound 0.0316 µM, first compound 0.1 µM
[21] = second compound 0.0316 µM, first compound 0.316 µM
[22] = second compound 0.0316 µM, first compound 1 µM
[23] = second compound 0.0316 µM, first compound 3.16 µM
[24] = second compound 0.0316 µM, first compound 10 µM
[25] = second compound 0.1 µM, first compound 0.0316 µM
[26] = second compound 0.1 µM, first compound 0.1 µM
[27] = second compound 0.1 µM, first compound 0.316 µM
[28] = second compound 0.1 µM, first compound 1 µM
[29] = second compound 0.1 µM, first compound 3.16 µM
[30] = second compound 0.1 µM, first compound 10 µM
[31] = second compound 0.316 µM, first compound 0.0316 µM
[32] = second compound 0.316 µM, first compound 0.1 µM
[33] = second compound 0.316 µM, first compound 0.316 µM
[34] = second compound 0.316 µM, first compound 1 µM
[35] = second compound 0.316 µM, first compound 3.16 µM
[36] = second compound 0.316 µM, first compound 10 µM
[37] = second compound 1 µM, first compound 0.0316 µM
[38] = second compound 1 µM, first compound 0.1 µM
[39] = second compound 1 µM, first compound 0.316 µM
[40] = second compound 1 µM, first compound 1 µM
[41] = second compound 1 µM, first compound 3.16 µM
[42] = second compound 1 µM, first compound 10 µM
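Further: spheroids exposed to agents for 7 days before viability read.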
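Wherever viability, T/C is given: 100% = DMSO vehicle control viability.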

SMILES: COc1c(OCCCN2CCOCC2)ccc2c3n(c(=NC(=O)c4cnc(N)nc4)nc12)CCN3
- viability, T/C (compound 0.00316 µM): 96% [middle of 8 runs]
- viability, T/C (compound 0.01 µM): 96.8% [middle of 8 runs]
- viability, T/C (compound 0.0316 µM): 95.7% [middle of 8 runs]
- viability, T/C (compound 0.1 µM): 39.7% [middle of 8 runs]
- viability, T/C (compound 0.316 µM): 19.6% [middle of 8 runs]
- viability, T/C (compound 1 µM): 16.4% [middle of 8 runs]
- IC50 (compound alone, run of 06/13/2023): 80.4 nM [middle of 8 runs]

SMILES: C[C@@H](NC(=O)c1ncnc(N)c1Cl)c1ncc(C(=O)Nc2cc(C(F)(F)F)c(Cl)cn2)s1 + CC(Nc1ccc2c(c1)OCCn1cc(N3C(=O)OCC3C(F)F)nc1-2)C(N)=O
- IC50 [1]: > 10000 nM
- IC50 [2]: > 10000 nM
- IC50 [3]: > 10000 nM
- IC50 [4]: > 10000 nM
- IC50 [5]: > 10000 nM
- IC50 [6]: > 10000 nM
- viability, T/C [7]: 97.2%
- viability, T/C [8]: 97.5%
- viability, T/C [9]: 116%
- viability, T/C [10]: 91.5%
- viability, T/C [11]: 111%
- viability, T/C [12]: 92%
- viability, T/C [13]: 94.7%
- viability, T/C [14]: 110%
- viability, T/C [15]: 101%
- viability, T/C [16]: 88.4%
- viability, T/C [17]: 90.8%
- viability, T/C [18]: 98.4%
- viability, T/C [19]: 94.4%
- viability, T/C [20]: 89.3%
- viability, T/C [21]: 94.4%
- viability, T/C [22]: 95.1%
- viability, T/C [23]: 103%
- viability, T/C [24]: 94.3%
- viability, T/C [25]: 91.2%
- viability, T/C [26]: 102%
- viability, T/C [27]: 101%
- viability, T/C [28]: 100%
- viability, T/C [29]: 96.7%
- viability, T/C [30]: 95.8%
- viability, T/C [31]: 109%
- viability, T/C [32]: 112%
- viability, T/C [33]: 92.7%
- viability, T/C [34]: 92.7%
- viability, T/C [35]: 88.8%
- viability, T/C [36]: 96.3%
- viability, T/C [37]: 67.5%
- viability, T/C [38]: 56.1%
- viability, T/C [39]: 63.7%
- viability, T/C [40]: 56.8%
- viability, T/C [41]: 65.1%
- viability, T/C [42]: 62.4%

SMILES: Cn1ncc(Cl)c1-c1cc(C(=O)NC(CN)Cc2cccc(F)c2)sc1Cl (configuration not stated) + Cc1nc(NC(=O)N2CCCC2C(N)=O)sc1-c1ccnc(C(C)(C)C(F)(F)F)c1
- IC50 [3]: 4060 nM
- IC50 [4]: 2930 nM
- IC50 [5]: 1950 nM
- IC50 [6]: 1430 nM
- IC50 (curve of first compound, second compound 3.16 µM): 605 nM
- IC50 (curve of first compound, second compound 10 µM): 131 nM
- viability, T/C [19]: 86.1%
- viability, T/C [20]: 106%
- viability, T/C [21]: 96.3%
- viability, T/C [22]: 83%
- viability, T/C [23]: 54.6%
- viability, T/C [24]: 35.1%
- viability, T/C [25]: 110%
- viability, T/C [26]: 97.2%
- viability, T/C [27]: 93.5%
- viability, T/C [28]: 60.1%
- viability, T/C [29]: 53.7%
- viability, T/C [30]: 34.1%
- viability, T/C [31]: 114%
- viability, T/C [32]: 119%
- viability, T/C [33]: 94%
- viability, T/C [34]: 61.8%
- viability, T/C [35]: 44.6%
- viability, T/C [36]: 29.7%
- viability, T/C [37]: 109%
- viability, T/C [38]: 108%
- viability, T/C [39]: 82.4%
- viability, T/C [40]: 54%
- viability, T/C [41]: 39.8%
- viability, T/C [42]: 21.1%
- viability, T/C (second compound 3.16 µM, first compound 0.0316 µM): 107%
- viability, T/C (second compound 3.16 µM, first compound 0.1 µM): 84%
- viability, T/C (second compound 3.16 µM, first compound 0.316 µM): 53.2%
- viability, T/C (second compound 3.16 µM, first compound 1 µM): 45%
- viability, T/C (second compound 3.16 µM, first compound 3.16 µM): 32.7%
- viability, T/C (second compound 3.16 µM, first compound 10 µM): 16.4%
- viability, T/C (second compound 10 µM, first compound 0.0316 µM): 60.6%
- viability, T/C (second compound 10 µM, first compound 0.1 µM): 52.2%
- viability, T/C (second compound 10 µM, first compound 0.316 µM): 40%
- viability, T/C (second compound 10 µM, first compound 1 µM): 31.9%
- viability, T/C (second compound 10 µM, first compound 3.16 µM): 28.4%
- viability, T/C (second compound 10 µM, first compound 10 µM): 4.34%

SMILES: CC(C)NCC(C(=O)N1CCN(c2ncnc3c2C(C)CC3O)CC1)c1ccc(Cl)cc1 (configuration not stated) + COc1c(OCCCN2CCOCC2)ccc2c3n(c(=NC(=O)c4cnc(N)nc4)nc12)CCN3
- IC50 [1]: 3680 nM
- IC50 [2]: 3740 nM
- IC50 [3]: 1850 nM
- IC50 [4]: < 31.6 nM
- IC50 [5]: < 31.6 nM
- IC50 [6]: < 31.6 nM
- viability, T/C [7]: 94.2%
- viability, T/C [8]: 83.3%
- viability, T/C [9]: 88.8%
- viability, T/C [10]: 70.6%
- viability, T/C [11]: 52.1%
- viability, T/C [12]: 39.4%
- viability, T/C [13]: 92.6%
- viability, T/C [14]: 80.9%
- viability, T/C [15]: 89.3%
- viability, T/C [16]: 81.7%
- viability, T/C [17]: 53.8%
- viability, T/C [18]: 28.2%
- viability, T/C [19]: 79%
- viability, T/C [20]: 84.4%
- viability, T/C [21]: 66.7%
- viability, T/C [22]: 71.8%
- viability, T/C [23]: 31.1%
- viability, T/C [24]: 25.8%
- viability, T/C [25]: 39%
- viability, T/C [26]: 45.5%
- viability, T/C [27]: 43.4%
- viability, T/C [28]: 27.9%
- viability, T/C [29]: 23.5%
- viability, T/C [30]: 18.6%
- viability, T/C [31]: 19.8%
- viability, T/C [32]: 19.3%
- viability, T/C [33]: 17.6%
- viability, T/C [34]: 18%
- viability, T/C [35]: 19.5%
- viability, T/C [36]: 13.3%
- viability, T/C [37]: 18.6%
- viability, T/C [38]: 13.7%
- viability, T/C [39]: 15.8%
- viability, T/C [40]: 13.6%
- viability, T/C [41]: 19.7%
- viability, T/C [42]: 11.8%

SMILES: CC(=O)c1c(C)c2cnc(Nc3ccc(N4CCNCC4)cn3)nc2n(C2CCCC2)c1=O
- viability, T/C (compound 0.000316 µM): 101% [middle of 4 runs]
- viability, T/C (compound 0.001 µM): 100% [middle of 4 runs]
- viability, T/C (compound 0.00316 µM): 83.2% and 102% (2×) and 91.3%
- viability, T/C (compound 0.01 µM): 93.4% [middle of 4 runs]
- viability, T/C (compound 0.0316 µM): 113% [middle of 4 runs]
- viability, T/C (compound 0.1 µM): 103% (2×) and 106% and 99.3%
- IC50 (curve of compound): > 100 nM

SMILES: Cn1ncnc1[C@H]1c2n[nH]c(=O)c3cc(F)cc(c23)N[C@@H]1c1ccc(F)cc1
- viability, T/C (compound 0.000316 µM): 101% and 102% and 91.8%
- viability, T/C (compound 0.001 µM): 91.2% and 106% and 101%
- viability, T/C (compound 0.00316 µM): 99.4% and 89% and 90.5%
- viability, T/C (compound 0.01 µM): 86.2% and 91.3% and 94.7%
- viability, T/C (compound 0.0316 µM): 98.2% and 92.9% and 117%
- viability, T/C (compound 0.1 µM): 110% and 96.3% and 103%
- IC50 (curve of compound): > 100 nM
